pIC50: −log10 of the molar value. Where two headings read alike, the source gives them in different places.
How the values were obtained:
wild type HIV-1 = test: Spread assay: inhibition of acute HIV-1 infection of T-lymphoid cells (WT); type: cell-based; details: Human immunodeficiency virus 1, T-lymphoid; wild type HIV-1, 10% FBS; read-out: Spread (WT) CIC95 (10% FBS)
Method: (§1) Assays for the inhibition of acute HIV-1 infection of T-lymphoid cells (alternatively referred to herein as the “spread assay”) were conducted in accordance with Vacca, J. P. et al., Proc. Natl. Acad. Sci. USA 1994, 91: 4096. The assays tested for inhibition of wild type HIV-1 and of HIV strains containing the Y181C or K103N mutation. […] Table C also reports the CIC95 values of certain of the title compounds of Examples 1-25 obtained in the assays employing the Y181C mutant strain and the K103N mutant strain.

[1] = target: T1, HIV reverse transcriptase with the Y181C mutation (Human immunodeficiency virus type 1 group M subtype B, UniProt P04585, Y768C); test: ECL assay for inhibition of mutant HIV reverse transcriptase (Y181C); type: biochemical, HIV-1
T1 construct: made in house
Method: (§2) 100 μL reaction mixtures were initiated with a combination of primer-template substrate (10 nM final concentration) and dNTPs (0.6 μM dNTPs, 1.25 μM BrdUTP). The heterodimeric nucleic acid substrate was generated by annealing the DNA primer pD500 (described in Shaw-Reid et al., J. Biol. Chem., 278: 2777-2780; obtained from Integrated DNA Technologies) to t500, a 500 nucleotide RNA template created by in vitro transcription (see Shaw-Reid et al., J. Biol. Chem., 278: 2777-2780). After 1 hour incubation at 37° C., reactions were quenched by 10 μL of 1 N NaOH. Microtiter plates were incubated for an additional 30 minutes at room temperature and then neutralized with 10 μL of 1 N HCl. A mixture of detection buffer containing ruthenylated anti-BrdU antibody and streptavidin coated magnetic beads were added to the plate and incubated at room temperature for 1.5 hours prior to quantification via electrochemiluminescence instrument.
(§3) Analogous assays were conducted substituting mutant HIV strains to determine the […] inhibition of compounds of the present invention against mutant HIV reverse transcriptase. In one strain the reverse transcriptase has the Y181C mutation and in the other strain the reverse transcriptase has the K103N mutation. The mutations were generated with the […] site-directed mutagenesis kit (Stratagene).

[2] = target: HIV-1 RT enzyme (wild-type) (Human immunodeficiency virus type 1 group M subtype B, UniProt P04585); test: ECL assay for inhibition of HIV reverse transcriptase (WT); type: biochemical
Method: as §2

[3] = system: HIV strain containing the K103N mutation; test: Spread assay: inhibition of acute HIV-1 infection of T-lymphoid cells (K103N); type: cell-based; details: Human immunodeficiency virus 1, T-lymphoid, read-out: Spread (K103N) CIC95 (10% FBS)
Method: as §1

T-lymphoid cells = type: cell-based
Method: Cytotoxicity was determined by microscopic examination of the cells in each well in the spread assay, wherein a trained analyst observed each culture for any of the following morphological changes as compared to the control cultures: pH imbalance, cell abnormality, cytostatic, cytopathic, or crystallization (i.e., the compound is not soluble or forms crystals in the well). The toxicity value assigned to a given compound is the lowest concentration of the compound at which one of the above changes is observed.

[4] = target: T2, HIV reverse transcriptase with the K103N mutation (Human immunodeficiency virus type 1 group M subtype B, UniProt P04585, K690N); test: ECL assay for inhibition of mutant HIV reverse transcriptase (K103N); type: biochemical, HIV-1
T2 construct: made in house
Method: as §2, §3

[5] = Y181C mutant RT, read-out: ECL Assay (Y181C) IC50
[6] = wild-type HIV-1 RT, read-out: ECL Assay (WT) IC50
[7] = K103N mutant RT, read-out: ECL Assay (K103N) IC50

Row | Compound | IC95 (wild type HIV-1) | pIC50 [1, 5] | pIC50 [2, 6] | IC95 [3] | Cytotoxicity: no cytotoxicity at concentrations of up to (T-lymphoid cells) | pIC50 [4, 7] | Cytotoxicity: no cytotoxicity at concentrations up to (T-lymphoid cells) | pIC50 [1] | pIC50 [2] | pIC50 [4]
1 | N#Cc1cc(Cl)cc(Oc2c(Cl)c(CCc3n[nH]c4ncccc34)[nH]c(=O)c2Cl)c1 [Compound 5-6, 3-chloro-5-({3,5-dichloro-2-oxo-6-[2-(1H-pyrazolo[3,4-b]pyridin-3-yl)ethyl]-1,2-dihydropyridin-4-yl}oxy)benzonitrile] | 42 nM | 8.80 | 8.92 | 367 nM | > 8.5 µM | 8.74 | – | – | – | –
2 | CCOC(=O)c1cc(Cl)cc(Oc2c(Cl)c(CCc3n[nH]c4ncccc34)[nH]c(=O)c2Cl)c1 [Compound 5-7, ethyl 3-chloro-5-({3,5-dichloro-2-oxo-6-[2-(1H-pyrazolo[3,4-b]pyridin-3-yl)ethyl]-1,2-dihydropyridin-4-yl}oxy)benzoate] | 1220 nM | 7.31 | 8.46 | – | > 8.5 µM | 7.28 | – | – | – | –
3 | N#Cc1cc(Cl)cc(Oc2cc(CCc3n[nH]c4ncccc34)ncc2Cl)c1 [Compound 6-5, 3-chloro-5-({5-chloro-2-[2-(1H-pyrazolo[3,4-b]pyridin-3-yl)ethyl]pyridin-4-yl}oxy)benzonitrile] | 103 nM | 6.57 | 7.60 | 361 nM | > 8.5 µM | 7.06 | – | – | – | –
4 | Cc1nc(OCc2n[nH]c3ncccc23)c(Cl)c(Oc2cc(Cl)cc(C#N)c2)c1Cl [Compound 7-1, 3-chloro-5-{[3,5-dichloro-2-methyl-6-(1H-pyrazolo[3,4-b]pyridin-3-ylmethoxy)pyridin-4-yl]oxy}benzonitrile] | 100 nM | 8.46 | 8.89 | 1700 nM | > 8.5 µM | 7.57 | – | – | – | –
5 | N#Cc1cc(Cl)cc(Oc2cc(NCc3n[nH]c4ncccc34)[nH]c(=O)c2Cl)c1 [Compound 8-5, 3-chloro-5-({3-chloro-2-oxo-6-[(1H-pyrazolo[3,4-b]pyridin-3-ylmethyl)amino]-1,2-dihydropyridin-4-yl}oxy)benzonitrile] | 34 nM | 8.24 | 9.05 | 833 nM | > 8.5 µM | 7.96 | – | – | – | –
6 | N#Cc1cc(Cl)cc(Oc2cc(Cn3c(=O)[nH]c4ccccc43)[nH]c(=O)c2Cl)c1 [Compound 9-8, 3-chloro-5-({3-chloro-2-oxo-6-[(2-oxo-2,3-dihydro-1H-benzimidazol-1-yl)methyl]-1,2-dihydropyridin-4-yl}oxy)benzonitrile] | 638 nM | 8.20 | 8.32 | – | > 8.5 µM | 7.89 | – | – | – | –
7 | Cc1ccn(Cc2n[nH]c3ncccc23)c(=O)c1Oc1cc(Cl)cc(C#N)c1 [Compound 11-7, 3-chloro-5-{[4-methyl-2-oxo-1-(1H-pyrazolo[3,4-b]pyridin-3-ylmethyl)-1,2-dihydropyridin-3-yl]oxy}benzonitrile] | 7 nM | 8.49 | 8.60 | 14 nM | – | 8.43 | > 833 nM | – | – | –
8 | Cc1ccn(CCc2n[nH]c3ncccc23)c(=O)c1Oc1cc(Cl)cc(C#N)c1 [Compound 12-7, 3-chloro-5-({4-methyl-2-oxo-1-[2-(1H-pyrazolo[3,4-b]pyridin-3-yl)ethyl]-1,2-dihydropyridin-3-yl}oxy)benzonitrile] | 248 nM | 7.29 | 7.60 | 447 nM | – | 7.24 | > 833 nM | – | – | –
9 | N#Cc1cc(Cl)cc(Oc2cc(C(O)c3n[nH]c4ncccc34)[nH]c(=O)c2Cl)c1 (stereo not drawn) [Compound 25-2] | 28 nM | – | – | 180 nM | – | – | – | 8.33 | 8.49 | 7.89

— US8404856B2, “Non-nucleoside reverse transcriptase inhibitors” (Merck Sharp & Dohme Corp., priority 2007, dated 2013)
